Laboratory results: publication PMC9925730, “Controlled sequential in situ self-assembly and disassembly of a fluorogenic cisplatin prodrug for cancer theranostics” (Nature Communications, 2023)
Where “and” joins values, the source holds several entries; their conditions need not be identical. Identical values can stand only once. Like-named read-outs stand apart in the source and are kept apart here.

Key:
HeLa cells [1] = experiment: Flow cytometry analysis of HeLa cell death (Annexin V-FITC/PI); assay type: cell-based, human; conditions: 20 μM 2 h, then blank medium 48 h
Protocol: Flow cytometric analysis of HeLa cell death. (a) Gating strategy applied for flow cytometric analysis. (b) Representative flow cytometric analysis of HeLa cells by Annexin V-FITC/PI staining. HeLa cells were treated with PBS, CDDP, PtIVNPs or P-CyPt (20 μM) for 2 h, washed with cold PBS for three times, and then continued incubation in refresh blank DMEM medium for another 48 h. The cells were then stained with the Annexin V-FITC/PI kit, and analyzed by flow cytometry. One representative experiment out of two is shown.
Flow cytometry analysis of HeLa cell death. Approximately 2×10^5 cells/well HeLa cells in 2 mL DMEM medium were seeded onto 6-well plates and allowed to grow overnight. The medium was replaced with 1 mL of fresh medium containing P-CyPt (20 μM), PtIVNPs (20 μM) and CDDP (20 μM), respectively. After 2 h incubation, medium was removed and cells were washed with PBS for three times. Then, cells were incubated with fresh medium for another 48 h to induce different levels of apoptosis.
After gentle washing with PBS (×1), the cells were detached from the plates with trypsin (500 μL per well), and the cell pellets were collected after centrifugation at 1000 161× g at 4 °C for 4 min. […] All assays were performed according to the manufacturer instructions, and the cell population was analyzed by annexin V-FITC and PI channels. […]

HeLa cells [2] = experiment: Cytotoxicity, MTT assay; assay type: cell-based, human; set-up: key to cell viability, mean: % viability = OD / OD of untreated control
Protocol: (§1) HeLa cells were seeded on flat-bottomed 96-well plates (5000 cells per well) and incubated at 37 °C overnight. Varying concentrations of P-CyPt, Pt^IVNPs or CDDP (0, 1, 2, 5, 10, 20, 30, 50, 100, and 200 μM) in DMEM medium (100 μL) were added. Cells were either incubated for 48 h, or firstly incubated with these three compounds for 2 h, washed with PBS and then incubated with refreshed blank DMEM medium for another 48 h. Then, 3-(4,5)-dimethylthiahiazo (-z-y1)−3,5-di-phenytetrazoliumromide (MTT, 50 μL, 1 mg /mL in PBS) was added into each well. The cells were kept at 37 °C for 4 h, and the solution in each well was carefully removed, followed by addition of dimethyl sulfoxide (DMSO, 150 μL). The absorbance (OD) at 490 nm in each well was acquired on the microplate reader (Tcan). The absorbance of non-treated blank cells (OD control) was used as the control. The percentage of cell viability was calculated by dividing OD to the OD control. […]
(§2) Supplementary Table 4. The IC50 (μM) value of different Pt drugs toward HeLa, HepG2 and HEK-293T cells.a
(§3) Compounds Condition IC50 (μM) HeLa HepG2 HEK-293T […]
(§4) a The IC50 values were measured by the MTT assay. Values denote mean ± s.d. (n = 3 independent experiments). b Cells were incubated with varying concentrations of CDDP, P-CyPt or PtIVNPs for […]
(§5) c Cells were incubated with varying concentrations of CDDP, P-CyPt or PtIVNPs for 2 h, and the mediums were removed, washed with PBS. Blank culture mediums were added, and the cells were kept incubation for another 48 h.

HEK-293T cells = experiment: Cytotoxicity, MTT assay; assay type: cell-based, human; set-up: key to cell viability, mean: % viability = OD / OD of untreated control
Protocol: as §1, §2, §3, §4, §5

HepG2 cells = experiment: Cytotoxicity, MTT assay; assay type: cell-based, human; set-up: key to cell viability, mean: % viability = OD / OD of untreated control
Protocol: as §1, §2, §3, §4, §5

s.c. HeLa tumors = experiment: Biodistribution study of Pt (ICP-OES); assay type: in vivo, mice

[NH2][Pt]([NH2])([Cl])[Cl] [CDDP, cisplatin]
apoptosis population (HeLa cells [1]): ~ 5.20% | cell viability, mean (HeLa cells [2]; Supplementary Fig. 23 (a), concentration 1 μM): 94.4173 | cell viability, mean (HeLa cells [2]; Supplementary Fig. 23 (a), concentration 2 μM): 90.2597 | cell viability, mean (HeLa cells [2]; Supplementary Fig. 23 (a), concentration 5 μM): 78.7193 | cell viability, mean (HeLa cells [2]; Supplementary Fig. 23 (a), concentration 10 μM): 62.7353 | cell viability, mean (HeLa cells [2]; Supplementary Fig. 23 (a), concentration 20 μM): 41.6693 | cell viability, mean (HeLa cells [2]; Supplementary Fig. 23 (a), concentration 30 μM): 27.22 | cell viability, mean (HeLa cells [2]; Supplementary Fig. 23 (a), concentration 50 μM): 19.0133 | cell viability, mean (HeLa cells [2]; Supplementary Fig. 23 (a), concentration 100 μM): 10.56 | cell viability, mean (HeLa cells [2]; Supplementary Fig. 23 (a), concentration 200 μM): 6.51 | IC50 (HeLa cells [2]; Supplementary Fig. 23 (a), read-out: IC50): 14.5 µM | cell viability, mean (HeLa cells [2]; Supplementary Fig. 24 (a), concentration 1 μM): 98.8285 | cell viability, mean (HeLa cells [2]; Supplementary Fig. 24 (a), concentration 2 μM): 97.2876 | cell viability, mean (HeLa cells [2]; Supplementary Fig. 24 (a), concentration 5 μM): 95.6072 | cell viability, mean (HeLa cells [2]; Supplementary Fig. 24 (a), concentration 10 μM): 92.7687 | cell viability, mean (HeLa cells [2]; Supplementary Fig. 24 (a), concentration 20 μM): 89.3445 | cell viability, mean (HeLa cells [2]; Supplementary Fig. 24 (a), concentration 30 μM): 83.6169 | cell viability, mean (HeLa cells [2]; Supplementary Fig. 24 (a), concentration 50 μM): 75.0853 | cell viability, mean (HeLa cells [2]; Supplementary Fig. 24 (a), concentration 100 μM): 65.2268 | cell viability, mean (HeLa cells [2]; Supplementary Fig. 24 (a), concentration 200 μM): 49.73 | IC50 (HeLa cells [2]; Supplementary Fig. 24 (a), read-out: IC50): 178 µM | IC50 (HeLa cells [2]; incubated 2 h, then blank medium 48 h, MTT, read-out: IC50 HeLa): 178 µM and > 150 µM | IC50 (HeLa cells [2]; incubated 48 h, MTT, read-out: IC50 HeLa): 14.5 ± 1.6 µM | IC50 (HEK-293T cells; HEK-293T, 2+48 h, individual samples, read-out: IC50-2+48h): > 200 µM | IC50 (HEK-293T cells; HEK-293T, 2+48 h, mean of 3 samples, read-out: IC50-2+48h): > 200 µM | cell viability, mean (HEK-293T cells; Supplementary Fig. 23 (c), concentration 1 μM): 95.9542 | cell viability, mean (HEK-293T cells; Supplementary Fig. 23 (c), concentration 2 μM): 90.0454 | cell viability, mean (HEK-293T cells; Supplementary Fig. 23 (c), concentration 5 μM): 78.4742 | cell viability, mean (HEK-293T cells; Supplementary Fig. 23 (c), concentration 10 μM): 63.7251 | cell viability, mean (HEK-293T cells; Supplementary Fig. 23 (c), concentration 20 μM): 47.669 | cell viability, mean (HEK-293T cells; Supplementary Fig. 23 (c), concentration 30 μM): 34.929 | cell viability, mean (HEK-293T cells; Supplementary Fig. 23 (c), concentration 50 μM): 24.7568 | cell viability, mean (HEK-293T cells; Supplementary Fig. 23 (c), concentration 100 μM): 14.7932 | cell viability, mean (HEK-293T cells; Supplementary Fig. 23 (c), concentration 200 μM): 8.255 | IC50 (HEK-293T cells; Supplementary Fig. 23 (c), read-out: IC50): 17.4 µM | cell viability, mean (HEK-293T cells; Supplementary Fig. 24 (c), concentration 1 μM): 98.6071 | cell viability, mean (HEK-293T cells; Supplementary Fig. 24 (c), concentration 2 μM): 97.4354 | cell viability, mean (HEK-293T cells; Supplementary Fig. 24 (c), concentration 5 μM): 96.6584 | cell viability, mean (HEK-293T cells; Supplementary Fig. 24 (c), concentration 10 μM): 94.4248 | cell viability, mean (HEK-293T cells; Supplementary Fig. 24 (c), concentration 20 μM): 94.1486 | cell viability, mean (HEK-293T cells; Supplementary Fig. 24 (c), concentration 30 μM): 93.57 | cell viability, mean (HEK-293T cells; Supplementary Fig. 24 (c), concentration 50 μM): 92.6006 | cell viability, mean (HEK-293T cells; Supplementary Fig. 24 (c), concentration 100 μM): 91.2991 | cell viability, mean (HEK-293T cells; Supplementary Fig. 24 (c), concentration 200 μM): 85.8671 | IC50 (HEK-293T cells; Supplementary Fig. 24 (c), read-out: IC50): > 200 µM | IC50 (HEK-293T cells; incubated 2 h, then blank medium 48 h, MTT, read-out: IC50 HEK-293T): > 200 µM | IC50 (HEK-293T cells; incubated 48 h, MTT, read-out: IC50 HEK-293T): 17.4 ± 1.05 µM | IC50 (HepG2 cells; HepG-2, 2+48 h, individual samples, read-out: IC50-2+48h): > 200 µM | IC50 (HepG2 cells; HepG-2, 2+48 h, mean of 3 samples, read-out: IC50-2+48h): > 200 µM | cell viability, mean (HepG2 cells; Supplementary Fig. 23 (b), concentration 1 μM): 95.3204 | cell viability, mean (HepG2 cells; Supplementary Fig. 23 (b), concentration 2 μM): 89.9797 | cell viability, mean (HepG2 cells; Supplementary Fig. 23 (b), concentration 5 μM): 77.7747 | cell viability, mean (HepG2 cells; Supplementary Fig. 23 (b), concentration 10 μM): 61.9896 | cell viability, mean (HepG2 cells; Supplementary Fig. 23 (b), concentration 20 μM): 45.1643 | cell viability, mean (HepG2 cells; Supplementary Fig. 23 (b), concentration 30 μM): 34.2775 | cell viability, mean (HepG2 cells; Supplementary Fig. 23 (b), concentration 50 μM): 23.521 | cell viability, mean (HepG2 cells; Supplementary Fig. 23 (b), concentration 100 μM): 12.914 | cell viability, mean (HepG2 cells; Supplementary Fig. 23 (b), concentration 200 μM): 8.323 | IC50 (HepG2 cells; Supplementary Fig. 23 (b), read-out: IC50): 16.3 µM | cell viability, mean (HepG2 cells; Supplementary Fig. 24 (b), concentration 1 μM): 97.7401 | cell viability, mean (HepG2 cells; Supplementary Fig. 24 (b), concentration 2 μM): 96.3386 | cell viability, mean (HepG2 cells; Supplementary Fig. 24 (b), concentration 5 μM): 94.9498 | cell viability, mean (HepG2 cells; Supplementary Fig. 24 (b), concentration 10 μM): 92.0343 | cell viability, mean (HepG2 cells; Supplementary Fig. 24 (b), concentration 20 μM): 89.3937 | cell viability, mean (HepG2 cells; Supplementary Fig. 24 (b), concentration 30 μM): 84.3715 | cell viability, mean (HepG2 cells; Supplementary Fig. 24 (b), concentration 50 μM): 79.6906 | cell viability, mean (HepG2 cells; Supplementary Fig. 24 (b), concentration 100 μM): 74.3564 | cell viability, mean (HepG2 cells; Supplementary Fig. 24 (b), concentration 200 μM): 60.8897 | IC50 (HepG2 cells; Supplementary Fig. 24 (b), read-out: IC50): > 200 µM | IC50 (HepG2 cells; incubated 2 h, then blank medium 48 h, MTT, read-out: IC50 HepG2): > 200 µM | IC50 (HepG2 cells; incubated 48 h, MTT, read-out: IC50 HepG2): 16.3 ± 1.69 µM | organ with the highest ID% g^−1 (s.c. HeLa tumors; 4 h post i.v. injection): kidneys | ID% g^−1 of Pt in tumors (s.c. HeLa tumors; s.c. HeLa tumors, 4 h post i.v. (100 μM, 200 μL), ICP-OES): ~ 3.6%
